From US5331094A, “Purified active somatostatin receptor” (American Cyanamid Company, priority 1992, dated 1994)
Bridge positions count the residues as written; N and C are the ends. Square brackets hold non-standard residues; d marks the D form. Peptide text beside a SMILES is read from it. * marks the point of attachment. Biotin = O=C1N[C@H]2[C@H](CS[C@H]2CCCCC(=O)*)N1; Ahx = NCCCCCC(=O)O

Target: SRIF receptor
Assay: Competitive radioligand binding assay with [125I]Tyr11-S14 and GH4 C1 membranes
Set-up: species or system rat
Conditions: for IC50: vs [125I]Tyr11-S14, 20 ug GH4 C1 membrane protein, 100,000 cpm radioligand (FIG. 1B)
Description: 1. Standard Binding Assays--Binding assays are done in a binding buffer containing 50 mM HEPES (pH 7.4), 0.5% BSA and 5 mM MgCl2. The standard assay for [^125 I]SRIF analog binding to GH4 C1 membranes, done in 96 well microtiter plates (Dynataech Immulon II Removawell plates), is carried out as follows: 1. Radioligand is diluted in binding buffer+ PMSF/Baci to the desired cpm per vol. of 50 μl and then 50 μl aliquots are added to the wells. For non-specific binding samples, 5 μl of 40 μM cold S14 is also added per well. 2. Binding is initiated by adding 150 μl per well of membrane diluted to the desired concentration (10-30 ug membrane protein/well) in binding buffer+ PMSF/Baci. Plates are then covered with Linbro mylar plate sealers (Flow Labs) and placed on a Dynatech Microshaker II and binding is allowed to proceed at room temperature for 1-2 hours. Binding is stopped by centrifuging the plate for 15 minutes at 2,000×g. The supernatants are dumped off and membrane pellets washed once by addition of 200 μl of ice cold binding buffer, brief shaking and recentrifugation. Finally the individual wells are placed in 12×75 mm tubes and counted in an LKB Gammamaster counter (78% efficiency). Specific binding by this method is identical to that measured when free ligand is removed by rapid (3-5 seconds) filtration and washing on polyethyleneimine-coated glass fiber filters.
2. competitive radioligand binding assays with a concentration range of cold ligand vs. [^125 I]SRIF are carried out as described above with one modification. All dilutions of SRIF analogs being assayed are made in 40×PMSF/Baci to a concentration 40× the final concentration in the assay. This gives very consistent results with a wide variety of SRIF structural analogs over a wide range of dilutions. 5 ul samples of peptide are then added per microtiter well. Membranes and radioligand are diluted out in binding buffer without protease inhibitors. Radioligand is added and mixed with cold peptides and then binding is initiated by addition of membranes.
These assays are carried out as described in "Methods: Receptor Binding Methods, 2". […] Therefore the Bio-6C-S14, Bio-12C-S14 and Bio-S28analogs are preferably synthesized. In Bio-S28, amino acid residues 1-14 are considered a spacer since residues 15-28 are equivalent to an S14 analog, having all the necessary structure for high affinity binding. The three spacer-containing biotinyl SRIFs show receptor binding activity similar to that of S14 (FIG. 1B; assays contained 20 ug of GH 4 C1 membrane protein and 100,000 cpm of radioligand). The IC50 s and relative potencies are S14 (0.2 nM)>Bio-S28(0.3 nM) >Bio-6C-S14 (2 nM)>Bio-12C-S14 (2 nM).

Compound	IC50 [nM]	potency relative to S14 in the competitive binding assay (FIG. 1A, 40 ug GH4 C1 membrane protein, 85,000 cpm radioligand)
C[C@H](NC(=O)CCCCCNC(=O)CCCCCNC(=O)CCCC[C@@H]1SC[C@@H]2NC(=O)N[C@@H]21)C(=O)NCC(=O)N[C@H]1CSSC[C@@H](C(=O)O)NC(=O)[C@H](CO)NC(=O)[C@H]([C@@H](C)O)NC(=O)[C@H](Cc2ccc(O)cc2)NC(=O)[C@H]([C@@H](C)O)NC(=O)[C@H](CCCCN)NC(=O)[C@H](Cc2c[nH]c3ccccc23)NC(=O)[C@H](Cc2ccccc2)NC(=O)[C@H](Cc2ccccc2)NC(=O)[C@H](CC(N)=O)NC(=O)[C@H](CCCCN)NC1=O [Bio-12C-S14, Biotinyl-[NH-(CH2)5 -CO]2 -NH-(Tyr11)SRIF14] ({Biotin-Ahx-Ahx}-AGCKNFFWKTYTSC-OH; disulfide 3-14 (inferred); C-terminus assumed)	2	–
C[C@H](N)C(=O)NCC(=O)N[C@H]1CSSC[C@@H](C(=O)O)NC(=O)[C@H](CO)NC(=O)[C@H]([C@@H](C)O)NC(=O)[C@H](Cc2ccccc2)NC(=O)[C@H]([C@@H](C)O)NC(=O)[C@H](CCCCN)NC(=O)[C@H](Cc2c[nH]c3ccccc23)NC(=O)[C@H](Cc2ccccc2)NC(=O)[C@H](Cc2ccccc2)NC(=O)[C@H](CC(N)=O)NC(=O)[C@H](CCCCN)NC1=O [S14, reference compound]	0.2	–
CC(C)C[C@H](NC(=O)[C@H](C)NC(=O)[C@@H]1CCCN1C(=O)[C@H](CC(N)=O)NC(=O)[C@H](CO)NC(=O)[C@H](CC(N)=O)NC(=O)[C@H](C)NC(=O)[C@H](CO)NC(=O)CCCC[C@@H]1SC[C@@H]2NC(=O)N[C@@H]21)C(=O)N[C@@H](C)C(=O)N1CCC[C@H]1C(=O)N[C@@H](CCCNC(=N)N)C(=O)N[C@@H](CCC(=O)O)C(=O)N[C@@H](CCCNC(=N)N)C(=O)N[C@@H](CCCCN)C(=O)N[C@@H](C)C(=O)NCC(=O)N[C@H]1CSSC[C@@H](C(=O)O)NC(=O)[C@H](CO)NC(=O)[C@H]([C@@H](C)O)NC(=O)[C@H](Cc2ccc(O)cc2)NC(=O)[C@H]([C@@H](C)O)NC(=O)[C@H](CCCCN)NC(=O)[C@@H](Cc2c[nH]c3ccccc23)NC(=O)[C@H](Cc2ccccc2)NC(=O)[C@H](Cc2ccccc2)NC(=O)[C@H](CC(N)=O)NC(=O)[C@H](CCCCN)NC1=O [Bio-S28, Biotinyl-NH-(Leu8, D-Trp22, Tyr25)SRIF28] (Biotin-SANSNPALAPRERKAGCKNFF[dW]KTYTSC-OH; disulfide 17-28 (inferred); C-terminus assumed)	0.3	–
Biotinyl-NH-SRIF14 [Biotinyl-NH-S14]	–	about 1.5%
C[C@H](NC(=O)CCCCCNC(=O)CCCC[C@@H]1SC[C@@H]2NC(=O)N[C@@H]21)C(=O)NCC(=O)N[C@H]1CSSC[C@@H](C(=O)O)NC(=O)[C@H](CO)NC(=O)[C@H]([C@@H](C)O)NC(=O)[C@H](Cc2ccc(O)cc2)NC(=O)[C@H]([C@@H](C)O)NC(=O)[C@H](CCCCN)NC(=O)[C@H](Cc2c[nH]c3ccccc23)NC(=O)[C@H](Cc2ccccc2)NC(=O)[C@H](Cc2ccccc2)NC(=O)[C@H](CC(N)=O)NC(=O)[C@H](CCCCN)NC1=O [Bio-6C-S14, Biotinyl-[NH--(CH2)5 --CO]--NH-(Tyr11)SRIF14] ({Biotin-Ahx}-AGCKNFFWKTYTSC-OH; disulfide 3-14)	2	–
